Molecular target: V1 receptor (Rattus norvegicus, UniProt P30560)
Assay: biochemical
Type: binding
Conditions: not given

Chain of V1 receptor (P30560 whole entry): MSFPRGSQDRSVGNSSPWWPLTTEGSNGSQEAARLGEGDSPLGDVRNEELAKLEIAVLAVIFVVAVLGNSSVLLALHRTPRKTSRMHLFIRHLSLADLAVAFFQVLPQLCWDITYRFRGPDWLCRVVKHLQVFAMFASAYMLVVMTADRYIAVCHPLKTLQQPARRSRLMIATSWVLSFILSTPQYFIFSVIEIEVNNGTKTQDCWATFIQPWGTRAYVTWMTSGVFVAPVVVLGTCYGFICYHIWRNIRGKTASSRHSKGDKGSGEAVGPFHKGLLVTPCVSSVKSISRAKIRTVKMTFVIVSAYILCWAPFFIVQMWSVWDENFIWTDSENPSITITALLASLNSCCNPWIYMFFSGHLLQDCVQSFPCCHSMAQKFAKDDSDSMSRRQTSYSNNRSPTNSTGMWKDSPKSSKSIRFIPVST

Q: Which IC50 does the source give for `CC(=O)c1ccc(C(=O)N2CCC(N3C(=O)CCc4ccccc43)CC2)cc1` [Example 107, 1-[1-(4-Acetylbenzoyl)-4-piperidinyl]-3,4-dihydrocarbostyril] here?
A: 750 nM

Q: `C=CCNCC(=O)NCCCCCOc1ccc(C(=O)N2CCC(N3C(=O)CCc4ccccc43)CC2)cc1` [Example 251] was tested. Which IC50 did it give?
A: 98 nM

Q: How did the IC50 turn out when `C=CCN1CCN(C(=O)CCCCCOc2ccc(C(=O)N3CCC(N4C(=O)CCc5ccccc54)CC3)cc2)CC1` [Example 273, 1-{1-(4-[5-(4-Allyl-1-piperazinylcarbonyl)pentyloxy]benzoyl)-4-piperidinyl}-3,4-dihydrocarbostyril] was run?
A: 57 nM

Q: Which IC50 does the source give for `CC(=O)Nc1ccc(C(=O)NCCCOc2ccc(C(=O)N3CCC(N4C(=O)CCc5ccccc54)CC3)cc2)cc1` [Example 196, 1-(1-[4-(3-(4-Acetylaminobenzoyl)aminopropoxy)benzoyl]-4-piperidinyl}-3,4-dihydrocarbostyril] here?
A: 170 nM

Q: Which IC50 does the source give for `NC(=O)CNC(=O)CCCOc1ccc(C(=O)N2CCC(N3C(=O)CCc4ccccc43)CC2)cc1` [Example 9, 1-{1-[4-(3-Carbamoylmethylaminocarbonylpropoxy)benzoyl]-4-piperidinyl}-3,4-dihydrocarbostyril] here?
A: 350 nM

Q: For `CN(CCO)CCCCCOc1ccc(C(=O)N2CCC(N3C(=O)CCc4ccccc43)CC2)cc1` [Example 244, 1-{1-(4-[5-(N-(2-Hydroxyethyl)-N-methylamino)pentyloxy]benzoyl)-4-piperidinyl}-3,4-dihydrocarbostyril], which IC50 is on record?
A: 34 nM

Q: How did the IC50 turn out when `CS(=O)(=O)NCCCCCCOc1ccc(C(=O)N2CCC(N3C(=O)CCc4ccccc43)CC2)cc1` [Example 142, 1-{1-[4-(6-Methylsulfonylaminohexyloxy)benzoyl]-4-piperidinyl}-3,4-dihydrocarbostyril] was run?
A: 100 nM

Q: How did the IC50 turn out when `CCSCCCOc1ccc(C(=O)N2CCC(N3C(=O)CCc4ccccc43)CC2)cc1` [Example 95, 1-{1-[4-(3-Ethylthiopropoxy)benzoyl]-4-piperidinyl}-3,4-dihydrocarbostyril] was run?
A: 960 nM

Q: Which IC50 does the source give for `C=CCOc1cc(OC)ccc1C(=O)N1CCC(N2C(=O)CCc3ccccc32)CC1` [Example 62, 1-[1-(2-Allyloxy-4-methoxybenzoyl)-4-piperidinyl]-3,4-dihydrocarbostyril] here?
A: 150 nM

Q: `COCc1ccc(C(=O)N2CCC(N3C(=O)CCc4ccccc43)CC2)cc1` [Example 109, 1-[1-(4-Methoxymethylbenzoyl)-4-piperidinyl]-3,4-dihydrocarbostyril] was tested. Which IC50 did it give?
A: 750 nM

Q: How did the IC50 turn out when `COc1cc(Cl)ccc1C(=O)N1CCC(N2C(=O)CCc3ccccc32)CC1` [Example 54, 1-[1-(2-Methoxy-4-chlorobenzoyl)-4-piperidinyl]-3,4-dihydrocarbostyril] was run?
A: 270 nM

Q: `O=C(c1ccc(C=CCCO)cc1)N1CCC(N2C(=O)CCc3ccccc32)CC1` [Example 122, 1-{1-[4-(4-Hydroxy-1-butenyl)benzoyl]-4-piperidinyl}-3,4-dihydrocarbostyril] was tested. Which IC50 did it give?
A: 710 nM

Q: With `COC(=O)NCCCCOc1ccc(C(=O)N2CCC(N3C(=O)CCc4ccccc43)CC2)cc1` [Example 27, 1-{1-[4-(4-Methoxycarbonylaminobutoxy)benzoyl]-4-piperidinyl}-3,4-dihydrocarbostyril] as the compound, how does the IC50 read?
A: 270 nM

Q: For `C=CCc1ccc(C(=O)N2CCC(N3C(=O)CCc4ccccc43)CC2)cc1` [Example 111, 1-[1-(4-Allylbenzoyl)-4-piperidinyl]-3,4-dihydrocarbostyril], which IC50 is on record?
A: 730 nM

Q: How did the IC50 turn out when `CSCCC(NC(C)=O)C(=O)NCCCOc1ccc(C(=O)N2CCC(N3C(=O)CCc4ccccc43)CC2)cc1` (stereo not shown) [Example 207, 1-(1-[4-(3-(2-Acetylamino-4-methylthiobutyrylamino)propoxy)benzoyl]-4-piperidinyl}-3,4-dihydrocarbostyril] was run?
A: 70 nM

Q: Which IC50 does the source give for `CN(CCO)CC(=O)NCCCCCOc1ccc(C(=O)N2CCC(N3C(=O)CCc4ccccc43)CC2)cc1` [Example 257, 1-{1-(4-[5-(2-(N-(2-Hydroxyethyl)-N-methylamino)acetylamino)pentyloxy]benzoyl)-4-piperidinyl}-3,4-dihydrocarbostyril] here?
A: 200 nM

Q: How did the IC50 turn out when `COc1ccc(C(=O)N2CCC(N3C(=O)CCc4ccccc43)CC2)c(OCCCOC(N)=O)c1` [Example 65, 1-{1-[2-(3-Carbamoyloxypropoxy)-4-methoxybenzoyl]-4-piperidinyl}-3,4-dihydrocarbostyril] was run?
A: 270 nM

Q: `O=C(c1cnc2ccccc2c1)N1CCC(N2C(=O)CCc3ccccc32)CC1` [Example 117, 1-[1-(3-quinolylcarbonyl)-4-piperidinyl]-3,4-dihydrocarbostyril] was tested. Which IC50 did it give?
A: 1500 nM

Q: `O=C(c1ccc(OC2C=CCCC2)cc1)N1CCC(N2C(=O)CCc3ccccc32)CC1` (stereo not shown) [Example 98, 1-{1-[4-(2-Cyclohexenyloxy)benzoyl]-4-piperidinyl}-3,4-dihydrocarbostyril] was tested. Which IC50 did it give?
A: 770 nM

Q: For `CC(=O)OCCCCOc1ccc(C(=O)N2CCC(N3C(=O)CCc4ccccc43)CC2)cc1` [Example 37, 1-{1-[4-(4-Acetoxybutoxy)benzoyl]-4-piperidinyl}-3,4-dihydrocarbostyril], which IC50 is on record?
A: 360 nM

Q: Which IC50 does the source give for `O=C(c1ccc(C=NO)cc1)N1CCC(N2C(=O)CCc3ccccc32)CC1` [Example 108, 1-[1-(4-Hydroxyiminomethylbenzoyl)-4-piperidinyl]-3,4-dihydrocarbostyril] here?
A: 1400 nM

Q: `CCOc1ccc(C(=O)N2CCC(N3C(=O)CCc4c(F)cc(F)cc43)CC2)c(OC)c1` [Example 139, 5,7-Difluoro-1-[1-(2-methoxy-4-ethoxybenzoyl)-4-piperidinyl]-3,4-dihydrocarbostyril] was tested. Which IC50 did it give?
A: 51 nM

Q: `O=C(c1ccc2c(c1)OCO2)N1CCC(N2C(=O)CCc3ccccc32)CC1` [Example 113, 1-[1-(3,4-Methylenedioxybenzoyl)-4-piperidinyl]-3,4-dihydrocarbostyril] was tested. Which IC50 did it give?
A: 980 nM

Q: Which IC50 does the source give for `CC(=O)OCCCCc1ccc(C(=O)N2CCC(N3C(=O)CCc4ccccc43)CC2)cc1` [Example 124, 1-{1-[4-(4-Acetoxybutyl)benzoyl]-4-piperidinyl}-3,4-dihydrocarbostyril] here?
A: 320 nM

Q: Which IC50 does the source give for `CS(=O)(=O)NCC(=O)NCCCCCOc1ccc(C(=O)N2CCC(N3C(=O)CCc4ccccc43)CC2)cc1` [Example 310, 1-{1-(4-[5-(2-Methanesulfonylaminoacetylamino)pentyloxy]benzoyl)-4-piperidinyl]-3,4-dihydrocarbostyril] here?
A: 160 nM

Q: How did the IC50 turn out when `O=C(c1ccc(OCCCC(O)CN2CCCCC2)cc1)N1CCC(N2C(=O)CCc3ccccc32)CC1` (stereo not shown) [Example 188] was run?
A: 68 nM

Q: Which IC50 does the source give for `C=CCOc1ccc(C(=O)N2CCC(N3C(=O)CCc4ccccc43)CC2)cc1` [Example 44, 1-[1-(4-Allyloxybenzoyl)-4-piperidinyl]-3,4-dihydrocarbostyril] here?
A: 300 nM

Q: How did the IC50 turn out when `NC(=O)CCCCCCCOc1ccc(C(=O)N2CCC(N3C(=O)CCc4ccccc43)CC2)cc1` [Example 15, 1-{1-[4-(7-Carbamoylheptyloxy)benzoyl]-4-piperidinyl}-3,4-dihydrocarbostyril] was run?
A: 260 nM

Q: For `O=C(c1ccc(OCCCC[S+]([O-])c2nc3ccccc3[nH]2)cc1)N1CCC(N2C(=O)CCc3ccccc32)CC1` (stereo not shown) [Example 194, 1-{1-[4-(4-(Benzimidazol-2-yl)sulfinylbutoxy)benzoyl]-4-piperidinyl}-3,4-dihydrocarbostyril], which IC50 is on record?
A: 350 nM

Q: How did the IC50 turn out when `O=C(CCCCCOc1ccc(C(=O)N2CCC(N3C(=O)CCc4ccccc43)CC2)cc1)c1nc2cnccc2[nH]1` [Example 154, 1-{1-[4-(5-(Imidazo[4,5-c]pyridine-2-yl)carbonylpentyloxy)benzoyl]-4-piperidinyl}-3,4-dihydrocarbostyril] was run?
A: 200 nM

Q: Which IC50 does the source give for `COc1ccc(CNCC(O)CCCCOc2ccc(C(=O)N3CCC(N4C(=O)CCc5ccccc54)CC3)cc2)cc1OC` (stereo not shown) [Example 299, 1-{1-(4-[5-Hydroxy-6-(3,4-dimethoxybenzylamino)hexyloxy]benzoyl)-4-piperidinyl}-3,4-dihydrocarbostyril.oxalate] here?
A: 65 nM

Q: With `NC(=O)CNC(=O)CCCCCOc1ccc(C(=O)N2CCC(N3C(=O)CCc4ccccc43)CC2)cc1` [Example 14, 1-{1-[4-(5-Carbamoylmethylaminocarbonylpentyloxy)benzoyl]-4-piperidinyl}-3,4-dihydrocarbostyril] as the compound, how does the IC50 read?
A: 160 nM

Q: `CCOc1ccc(C(=O)N2CCC(N3C(=O)CCc4c(OC(C)=O)cccc43)CC2)c(OC)c1` [Example 309, 5-Acetoxy-1-[1-(2-Methoxy-4-ethoxybenzoyl)-4-piperidinyl]-3,4-dihydrocarbostyril] was tested. Which IC50 did it give?
A: 73 nM

Q: With `CCN(CC)CCCCCCOc1ccc(C(=O)N2CCC(N3C(=O)CCc4ccccc43)CC2)cc1` [Example 213, 1-{1-[4-(6-Diethylaminohexyloxy)benzoyl]-4-piperidinyl}-3,4-dihydrocarbostyril] as the compound, how does the IC50 read?
A: 59 nM

Q: How did the IC50 turn out when `O=C(c1ccc(OCc2ccccc2)cc1)N1CCC(N2C(=O)CCc3ccccc32)CC1` [Example 97, 1-[1-(4-Benzyloxybenzoyl)-4-piperidinyl]-3,4-dihydrocarbostyril] was run?
A: 1100 nM

Q: With `CCOC(=O)CN(C)c1cc(OC)ccc1C(=O)N1CCC(N2C(=O)CCc3ccccc32)CC1` [Example 102, 1-{1-[4-Methoxy-2-(N-methyl-N-ethoxycarbonylmethylamino)benzoyl]-4-piperidinyl}-3,4-dihydrocarbostyril] as the compound, how does the IC50 read?
A: 1100 nM

Q: `NC(=O)OCCCCCOc1ccc(C(=O)N2CCC(N3C(=O)CCc4ccccc43)CC2)cc1` [Example 129, 1-{1-[4-(5-Carbamoyloxypentyloxy)benzoyl]-4-piperidinyl}-3,4-dihydrocarbostyril] was tested. Which IC50 did it give?
A: 180 nM

Q: For `CN(C)c1ccc(C(=O)N2CCC(N3C(=O)CCc4ccccc43)CC2)c(N(C)C)c1` [Example 50, 1-{1-[2,4-Bis(N,N-dimethylamino)benzoyl]-4-piperidinyl}-3,4-dihydrocarbostyril], which IC50 is on record?
A: 400 nM

Same assay, conditions: [H]3-Arg-vasopressin 2×10^-10 M, rat liver plasma membrane, 37° C., 10 minutes, pH 8.0

Q: Which IC50 does the source give for `COc1ccc(C(=O)N2CCC(N3C(=O)CCc4ccccc43)C(C)C2)c(OC)c1` (stereo not shown) [Example 118, 1-[3-Methyl-1-(2,4-dimethoxycarbonyl)-4-piperidinyl]-3,4-dihydrocarbostyril] here?
A: 260 nM

Same assay, conditions: [H]3-Arg-vasopressin 2×10^-10 M, rat liver plasma membrane, 37° C., 10 minutes, pH 8.0; read-out: IC50

Q: With “1-[1-(4-Propargylbenzoyl)-4-piperidinyl]-3,4-dihydrocarbostyril [Example 96]” as the compound, how does the IC50 read?
A: 600 nM

Source: US5436254A, “Carbostyril derivatives” (Otsuka Pharmaceutical Company, Ltd., priority 1989, dated 1995)
